In US10683282B2, “Multi-substituted pyrimidine derivatives with excellent kinase inhibitory activities” (KOREA INSTITUTE OF SCIENCE AND TECHNOLOGY, priority 2018, dated 2020):
Like-named read-outs stand apart in the source and are kept apart here.

Experiments:
ARK5/NUAK1 [1] = target: T1, ARK5/NUAK1 (Homo sapiens, UniProt O60285); details: comparative values quoted in text, source not stated; read-out: ARK5/NUAK1 IC50 of comparative compounds; cited from earlier work
T1 construct: purchased Reaction Biology Corporation
T1 sequence (O60285 1-661): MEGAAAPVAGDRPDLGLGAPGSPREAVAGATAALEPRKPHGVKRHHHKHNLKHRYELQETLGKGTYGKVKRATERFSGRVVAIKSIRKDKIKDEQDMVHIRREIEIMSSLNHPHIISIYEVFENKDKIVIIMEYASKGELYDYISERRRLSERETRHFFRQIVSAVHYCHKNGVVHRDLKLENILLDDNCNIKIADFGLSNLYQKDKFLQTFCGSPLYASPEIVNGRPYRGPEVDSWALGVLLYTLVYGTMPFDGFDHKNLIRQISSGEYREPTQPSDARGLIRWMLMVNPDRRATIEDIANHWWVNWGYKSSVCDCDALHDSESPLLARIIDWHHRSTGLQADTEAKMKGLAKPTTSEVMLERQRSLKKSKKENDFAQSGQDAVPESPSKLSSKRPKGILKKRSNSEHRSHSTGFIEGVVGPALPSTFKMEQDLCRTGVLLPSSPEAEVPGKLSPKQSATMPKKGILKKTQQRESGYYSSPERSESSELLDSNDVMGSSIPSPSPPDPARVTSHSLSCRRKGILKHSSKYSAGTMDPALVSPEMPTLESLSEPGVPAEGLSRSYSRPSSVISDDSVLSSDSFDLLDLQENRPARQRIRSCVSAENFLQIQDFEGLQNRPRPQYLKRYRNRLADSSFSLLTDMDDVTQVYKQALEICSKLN

Ba/F3 FLT3-ITD = Ba/F3 FLT3-ITD growth inhibition; type: cell-based; details: Ba/F3 FLT3-ITD cells
Ba/F3 parental = Ba/F3 parental growth inhibition; type: cell-based; details: Mus musculus, BaF3; Ba/F3 parental cells
CYP 3A4 = CYP 3A4 (Homo sapiens, UniProt P08684); assay: CYP450 assay (luminescence); type: in vitro ADME; details: compound at 10 μM, read-out: inhibitory activity against human CYP 3A4
Method: (§1) Compound 5 and a positive control stock solution were diluted with water to prepare a 40 μM working solution, and a solution containing an enzyme and a substrate was prepared using water and buffer. Compound 5/control/positive control and the solution were each dispensed on a 96-well and preincubated at 37° C. for 10 minutes. The resulting substance was reacted with NADPH for 20 minutes at 37° C. and a detection reagent was added to terminate the reaction. After stabilization at room temperature for 20 minutes, a luminescence signal was measured.

ACK1 = target: T2, ACK1 (Homo sapiens, UniProt Q07912); assay: Kinase screening, HotSpot assay (Reaction Biology); type: biochemical
T2 construct: purchased Reaction Biology Corporation
T2 sequence (Q07912 whole entry): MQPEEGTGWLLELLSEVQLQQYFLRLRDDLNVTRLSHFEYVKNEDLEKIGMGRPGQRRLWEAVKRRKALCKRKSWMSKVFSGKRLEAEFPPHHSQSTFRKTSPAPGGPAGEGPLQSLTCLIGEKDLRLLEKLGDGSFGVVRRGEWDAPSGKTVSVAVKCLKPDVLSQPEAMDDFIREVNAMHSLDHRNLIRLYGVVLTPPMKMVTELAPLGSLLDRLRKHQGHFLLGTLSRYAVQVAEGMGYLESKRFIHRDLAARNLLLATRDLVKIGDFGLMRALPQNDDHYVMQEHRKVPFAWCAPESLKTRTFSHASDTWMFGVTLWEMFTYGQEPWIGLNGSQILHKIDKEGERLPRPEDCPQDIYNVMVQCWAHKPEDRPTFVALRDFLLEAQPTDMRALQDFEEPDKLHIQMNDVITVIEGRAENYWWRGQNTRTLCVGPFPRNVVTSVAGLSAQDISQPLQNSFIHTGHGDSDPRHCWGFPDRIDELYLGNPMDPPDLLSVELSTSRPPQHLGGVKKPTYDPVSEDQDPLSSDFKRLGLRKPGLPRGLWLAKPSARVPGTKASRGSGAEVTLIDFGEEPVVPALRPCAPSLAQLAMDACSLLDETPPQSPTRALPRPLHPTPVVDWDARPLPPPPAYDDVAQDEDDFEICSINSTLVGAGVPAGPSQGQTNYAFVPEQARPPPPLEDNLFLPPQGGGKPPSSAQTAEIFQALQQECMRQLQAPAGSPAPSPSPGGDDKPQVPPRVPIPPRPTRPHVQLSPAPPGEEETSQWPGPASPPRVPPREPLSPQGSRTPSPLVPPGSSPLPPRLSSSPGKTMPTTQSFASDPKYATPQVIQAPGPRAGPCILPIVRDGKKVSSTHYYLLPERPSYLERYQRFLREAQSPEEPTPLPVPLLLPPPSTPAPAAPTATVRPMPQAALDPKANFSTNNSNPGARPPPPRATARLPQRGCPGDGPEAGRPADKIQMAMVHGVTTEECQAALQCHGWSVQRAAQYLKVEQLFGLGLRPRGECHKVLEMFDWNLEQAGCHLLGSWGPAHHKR
Method: (§2) Kinase screening was performed using a “HotSpot” assay platform method by Reaction Biology Corporation. The reaction buffer used herein contained 20 mM HEPES (pH 7.5), 10 mM MgCl2, 1 mM EGTA, 0.02% Brij35, 0.02 mg/mL BSA, 0.1 mM Na3VO4, 2 mM DTT and 1% DMSO. The required cofactors were added in accordance with the kinase reaction. Freshly made buffer and cofactors were added at a concentration of 20 μM during the selected enzyme reaction. A solution of the test compound in dimethylsulfoxide (DMSO) was added at a suitable concentration to this solution. In order to initiate reaction, […] (specific activity […]) was added and incubated at room temperature for 2 hours. The test compound was screened at a starting concentration of 20 μM in a 10-dose IC50 mode. IC50 of Staurosporine used as a control drug was obtained at a starting concentration of 20 μM in a 10-dose IC50 mode.

ARK5/NUAK1 [2] = target: T1, ARK5/NUAK1; assay: Kinase screening, HotSpot assay (Reaction Biology); type: biochemical
Method: as §2

JAK2 = target: T3, JAK2 (Homo sapiens, UniProt O60674); assay: Kinase screening, HotSpot assay (Reaction Biology); type: biochemical
T3 construct: purchased Reaction Biology Corporation
T3 sequence (O60674 whole entry): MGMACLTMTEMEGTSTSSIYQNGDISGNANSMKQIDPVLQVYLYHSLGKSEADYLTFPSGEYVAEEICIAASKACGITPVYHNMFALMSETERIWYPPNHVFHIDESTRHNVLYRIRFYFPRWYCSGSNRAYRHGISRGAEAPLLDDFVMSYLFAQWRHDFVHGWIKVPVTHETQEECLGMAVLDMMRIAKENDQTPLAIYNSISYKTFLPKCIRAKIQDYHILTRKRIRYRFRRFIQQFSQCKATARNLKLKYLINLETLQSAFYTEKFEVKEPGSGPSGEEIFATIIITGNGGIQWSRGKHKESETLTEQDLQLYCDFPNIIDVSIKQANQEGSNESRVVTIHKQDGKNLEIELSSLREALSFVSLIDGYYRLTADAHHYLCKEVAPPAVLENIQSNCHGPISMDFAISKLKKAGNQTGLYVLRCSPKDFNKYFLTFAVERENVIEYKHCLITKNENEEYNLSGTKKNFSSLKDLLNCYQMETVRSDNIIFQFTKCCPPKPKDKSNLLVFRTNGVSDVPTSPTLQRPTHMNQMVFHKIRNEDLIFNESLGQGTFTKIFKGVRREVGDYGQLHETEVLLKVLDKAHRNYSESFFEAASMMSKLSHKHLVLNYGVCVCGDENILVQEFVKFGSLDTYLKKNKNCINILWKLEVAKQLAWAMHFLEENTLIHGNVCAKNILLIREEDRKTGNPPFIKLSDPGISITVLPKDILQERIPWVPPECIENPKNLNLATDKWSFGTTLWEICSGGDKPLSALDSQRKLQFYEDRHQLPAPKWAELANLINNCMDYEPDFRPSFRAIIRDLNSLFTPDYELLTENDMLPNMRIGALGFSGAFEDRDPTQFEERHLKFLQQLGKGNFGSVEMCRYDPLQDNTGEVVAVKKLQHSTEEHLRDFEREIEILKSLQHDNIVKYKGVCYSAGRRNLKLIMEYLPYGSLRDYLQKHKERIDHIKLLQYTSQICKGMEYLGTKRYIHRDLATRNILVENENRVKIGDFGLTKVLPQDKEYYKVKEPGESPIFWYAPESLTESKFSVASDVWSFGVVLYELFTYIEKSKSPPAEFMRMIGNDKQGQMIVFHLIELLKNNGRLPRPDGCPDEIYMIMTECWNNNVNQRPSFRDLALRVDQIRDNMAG
Method: as §2

JAK1 = target: T4, JAK1 (Homo sapiens, UniProt P23458); assay: Kinase screening, HotSpot assay (Reaction Biology); type: biochemical
T4 construct: purchased Reaction Biology Corporation
T4 sequence (P23458 whole entry): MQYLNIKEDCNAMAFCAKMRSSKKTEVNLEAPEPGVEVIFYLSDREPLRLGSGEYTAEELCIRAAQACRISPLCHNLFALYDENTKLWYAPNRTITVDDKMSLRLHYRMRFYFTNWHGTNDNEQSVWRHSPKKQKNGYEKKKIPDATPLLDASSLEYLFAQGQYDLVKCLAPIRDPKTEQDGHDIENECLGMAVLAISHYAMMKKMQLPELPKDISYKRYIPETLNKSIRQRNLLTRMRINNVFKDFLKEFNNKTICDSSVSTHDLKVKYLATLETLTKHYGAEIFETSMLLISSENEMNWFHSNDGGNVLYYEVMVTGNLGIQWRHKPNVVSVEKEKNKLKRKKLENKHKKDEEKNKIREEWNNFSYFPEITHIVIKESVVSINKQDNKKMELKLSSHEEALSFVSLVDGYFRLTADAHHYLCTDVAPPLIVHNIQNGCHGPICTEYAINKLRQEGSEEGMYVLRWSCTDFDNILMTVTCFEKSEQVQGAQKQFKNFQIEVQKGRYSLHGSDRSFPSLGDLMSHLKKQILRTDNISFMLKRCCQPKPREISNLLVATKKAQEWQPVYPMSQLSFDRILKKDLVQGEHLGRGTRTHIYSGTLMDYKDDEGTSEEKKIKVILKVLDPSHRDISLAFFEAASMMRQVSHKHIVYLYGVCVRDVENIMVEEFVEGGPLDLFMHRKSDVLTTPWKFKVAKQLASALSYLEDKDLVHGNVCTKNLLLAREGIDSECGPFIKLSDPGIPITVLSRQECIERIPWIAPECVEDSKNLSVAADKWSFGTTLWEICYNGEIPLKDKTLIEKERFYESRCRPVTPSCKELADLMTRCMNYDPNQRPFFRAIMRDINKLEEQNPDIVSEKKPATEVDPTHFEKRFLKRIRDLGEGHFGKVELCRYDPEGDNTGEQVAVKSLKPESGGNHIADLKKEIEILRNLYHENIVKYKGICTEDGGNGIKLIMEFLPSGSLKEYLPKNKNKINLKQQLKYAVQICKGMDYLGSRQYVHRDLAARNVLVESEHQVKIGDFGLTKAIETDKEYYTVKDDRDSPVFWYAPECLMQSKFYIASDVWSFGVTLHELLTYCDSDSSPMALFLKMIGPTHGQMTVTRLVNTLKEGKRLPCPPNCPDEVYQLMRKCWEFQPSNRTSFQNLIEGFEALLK
Method: as §2

JAK2(V617F) = target: T5, JAK2(V617F) (Homo sapiens, UniProt O60674, V617F); assay: Kinase screening, HotSpot assay (Reaction Biology); type: biochemical
T5 construct: purchased Reaction Biology Corporation
T5 sequence (O60674 whole entry V617F): as the sequence (O60674 whole entry) above, with V617F counted along it
Method: as §2

FLT3 = target: T6, FLT3 (Homo sapiens, UniProt P36888); assay: Kinase screening, HotSpot assay (Reaction Biology); type: biochemical
T6 construct: purchased Reaction Biology Corporation
T6 sequence (P36888 27-993): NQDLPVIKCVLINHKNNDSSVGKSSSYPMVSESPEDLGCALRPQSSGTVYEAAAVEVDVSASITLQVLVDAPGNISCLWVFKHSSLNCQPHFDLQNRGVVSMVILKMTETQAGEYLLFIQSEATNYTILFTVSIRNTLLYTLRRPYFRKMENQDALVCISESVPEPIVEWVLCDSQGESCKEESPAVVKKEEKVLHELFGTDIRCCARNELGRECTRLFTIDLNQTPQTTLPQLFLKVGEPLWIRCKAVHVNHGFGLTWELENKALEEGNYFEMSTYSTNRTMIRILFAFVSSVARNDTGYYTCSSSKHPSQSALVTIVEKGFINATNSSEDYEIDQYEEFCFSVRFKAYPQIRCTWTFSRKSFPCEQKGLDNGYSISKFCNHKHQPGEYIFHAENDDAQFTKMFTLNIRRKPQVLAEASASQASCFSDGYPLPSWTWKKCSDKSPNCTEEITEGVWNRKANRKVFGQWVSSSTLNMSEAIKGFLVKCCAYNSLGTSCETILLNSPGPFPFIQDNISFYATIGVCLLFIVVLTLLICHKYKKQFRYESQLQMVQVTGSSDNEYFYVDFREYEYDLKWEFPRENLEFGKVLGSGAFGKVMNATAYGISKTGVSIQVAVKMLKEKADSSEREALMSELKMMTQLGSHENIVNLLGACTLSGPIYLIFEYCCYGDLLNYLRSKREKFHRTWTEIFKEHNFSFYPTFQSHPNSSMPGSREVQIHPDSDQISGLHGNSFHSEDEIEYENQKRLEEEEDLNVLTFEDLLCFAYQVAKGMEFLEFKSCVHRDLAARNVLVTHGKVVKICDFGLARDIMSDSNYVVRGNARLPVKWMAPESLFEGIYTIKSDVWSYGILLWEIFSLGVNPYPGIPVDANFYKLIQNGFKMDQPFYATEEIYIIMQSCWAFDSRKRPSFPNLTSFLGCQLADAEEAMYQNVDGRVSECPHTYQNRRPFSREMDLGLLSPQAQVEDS
Method: Kinase screening was performed using a “HotSpot” assay platform method by Reaction Biology Corporation. The reaction buffer used herein contained 20 mM HEPES (pH 7.5), 10 mM MgCl2, 1 mM EGTA, 0.02% Brij35, 0.02 mg/mL BSA, 0.1 mM Na3VO4, 2 mM DTT and 1% DMSO. The required cofactors were added in accordance with the kinase reaction. Freshly made buffer and cofactors were added at a concentration of 20 μM during the selected enzyme reaction. A solution of the test compound in dimethylsulfoxide (DMSO) was added at a suitable concentration to this solution.

K-562 cell line = K-562 cell line activity; type: cell-based; details: Homo sapiens, K562
MV-4-11 cells = assay: MV-4-11 cell screening (viable cells by ATP luminescence); type: cell-based; details: Homo sapiens, MV4-11, 72 hours incubation, read-out: MV-4-11 cell line (IC50)
Method: A control compound was a 1 mM Staurosporine solution in DMSO.
25 μL of culture media containing 2,000 MV-4-11 cells were added and incubated at 37° C. in the presence of 5% CO2 for 72 hours. Then, the culture solution was mixed in an orbital shaker for 2 minutes and incubated at room temperature for 15 minutes. […] IC50 values are measured using the GraphPad Prism 4 program in accordance with the sigmoidal dose-response equation.

c-MER = target: T7, c-MER (Homo sapiens, UniProt Q12866); assay: Kinase screening, HotSpot assay (Reaction Biology); type: biochemical
T7 construct: purchased Reaction Biology Corporation
T7 sequence (Q12866 21-999): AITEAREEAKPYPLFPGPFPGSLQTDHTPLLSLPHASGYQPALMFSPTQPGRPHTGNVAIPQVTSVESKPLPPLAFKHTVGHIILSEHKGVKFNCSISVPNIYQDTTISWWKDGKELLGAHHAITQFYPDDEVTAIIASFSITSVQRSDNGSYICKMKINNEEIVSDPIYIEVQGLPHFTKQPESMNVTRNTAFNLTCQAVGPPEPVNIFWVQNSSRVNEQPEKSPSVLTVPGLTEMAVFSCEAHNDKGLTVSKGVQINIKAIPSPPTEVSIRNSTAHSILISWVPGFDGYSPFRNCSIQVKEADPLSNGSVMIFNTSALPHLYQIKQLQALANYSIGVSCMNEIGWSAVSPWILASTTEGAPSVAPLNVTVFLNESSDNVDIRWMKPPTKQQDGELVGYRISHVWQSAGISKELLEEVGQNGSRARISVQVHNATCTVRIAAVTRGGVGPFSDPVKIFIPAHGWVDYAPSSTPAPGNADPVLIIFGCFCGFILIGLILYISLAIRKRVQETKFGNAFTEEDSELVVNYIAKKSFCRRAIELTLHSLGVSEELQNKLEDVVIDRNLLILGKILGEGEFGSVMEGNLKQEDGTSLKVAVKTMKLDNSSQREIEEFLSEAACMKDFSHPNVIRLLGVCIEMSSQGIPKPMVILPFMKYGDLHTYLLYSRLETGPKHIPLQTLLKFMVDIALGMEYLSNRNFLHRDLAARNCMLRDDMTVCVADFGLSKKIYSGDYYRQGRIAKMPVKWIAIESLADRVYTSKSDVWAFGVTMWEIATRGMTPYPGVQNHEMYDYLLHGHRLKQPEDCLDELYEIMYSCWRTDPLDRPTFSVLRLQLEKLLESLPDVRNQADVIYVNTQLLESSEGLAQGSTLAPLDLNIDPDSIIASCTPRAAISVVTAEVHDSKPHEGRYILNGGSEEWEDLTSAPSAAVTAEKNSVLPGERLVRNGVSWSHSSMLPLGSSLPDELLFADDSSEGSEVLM
Method: as §2

RET = target: T8, RET (Homo sapiens, UniProt P07949); assay: Kinase screening, HotSpot assay (Reaction Biology); type: biochemical
T8 construct: purchased Reaction Biology Corporation
Method: as §2

SIK2 = target: T9, SIK2 (Homo sapiens, UniProt Q9H0K1); assay: Kinase screening, HotSpot assay (Reaction Biology); type: biochemical
T9 construct: purchased Reaction Biology Corporation
Method: as §2

LRRK2 = target: T10, LRRK2 (Homo sapiens, UniProt Q5S007); assay: Kinase screening, HotSpot assay (Reaction Biology); type: biochemical
T10 construct: purchased Reaction Biology Corporation
Method: as §2

AXL(R499C) = target: T11, AXL(R499C) (Homo sapiens, UniProt P30530, R499C); assay: Kinase screening, HotSpot assay (Reaction Biology); type: biochemical
T11 construct: purchased Reaction Biology Corporation
Method: as §2

TYRO3/SKY = target: T12, TYRO3/SKY (Homo sapiens, UniProt Q06418); assay: Kinase screening, HotSpot assay (Reaction Biology); type: biochemical
T12 construct: purchased Reaction Biology Corporation
Method: as §2

PKCmu/PRKD1 = target: T13, PKCmu/PRKD1 (Homo sapiens, UniProt Q15139); assay: Kinase screening, HotSpot assay (Reaction Biology); type: biochemical
T13 construct: purchased Reaction Biology Corporation
Method: as §2

JAK3 = target: T14, JAK3 (Homo sapiens, UniProt P52333); assay: Kinase screening, HotSpot assay (Reaction Biology); type: biochemical
T14 construct: purchased Reaction Biology Corporation
Method: as §2

mLK1/MAP3K9 = target: T15, mLK1/MAP3K9 (Homo sapiens, UniProt P80192); assay: Kinase screening, HotSpot assay (Reaction Biology); type: biochemical
T15 construct: purchased Reaction Biology Corporation
Method: as §2

AXL = target: T16, AXL (Homo sapiens, UniProt P30530); assay: Kinase screening, HotSpot assay (Reaction Biology); type: biochemical
T16 construct: purchased Reaction Biology Corporation
Method: as §2

CYP 2C19 = CYP 2C19 (Homo sapiens, UniProt P33261); assay: CYP450 assay (luminescence); type: in vitro ADME; details: control compound at 100 μM, read-out: inhibitory activity against human CYP 2C19
Chain of CYP 2C19 (P33261 whole entry): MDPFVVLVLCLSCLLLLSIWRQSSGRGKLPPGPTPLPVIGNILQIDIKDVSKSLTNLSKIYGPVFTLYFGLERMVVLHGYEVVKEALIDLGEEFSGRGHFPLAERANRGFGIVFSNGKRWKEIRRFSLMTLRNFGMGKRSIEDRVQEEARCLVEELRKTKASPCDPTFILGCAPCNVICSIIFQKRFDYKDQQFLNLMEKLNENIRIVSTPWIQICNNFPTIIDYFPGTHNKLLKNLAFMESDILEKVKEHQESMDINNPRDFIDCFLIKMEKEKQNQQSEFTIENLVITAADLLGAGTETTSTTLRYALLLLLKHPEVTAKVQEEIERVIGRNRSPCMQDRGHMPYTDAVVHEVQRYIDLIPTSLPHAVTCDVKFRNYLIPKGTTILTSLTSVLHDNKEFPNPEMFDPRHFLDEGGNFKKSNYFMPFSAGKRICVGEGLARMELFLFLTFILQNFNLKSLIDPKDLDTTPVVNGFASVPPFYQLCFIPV
Method: The resulting substance was reacted with NADPH for 20 minutes at 37° C. and a detection reagent was added to terminate the reaction. After stabilization at room temperature for 20 minutes, a luminescence signal was measured.

CYP 1A2 = CYP 1A2 (Homo sapiens, UniProt P05177); assay: CYP450 assay (luminescence); type: in vitro ADME; details: compound at 10 μM
Method: as §1

Question: For `Cc1nc(Nc2cnn(C3CCNCC3)c2)nc2c1N(C)C(=O)c1cc3ccccc3cc1N2C` [HTH-01-015], which IC50 (ARK5/NUAK1 [1]) is on record?
Answer: The IC50 was 100 nM.

Question: Which GI50 (Ba/F3 FLT3-ITD) does the source give for `FC(F)(F)c1cnc(Nc2ccc(OCCN3CCCC3)cc2)nc1NCc1ccco1` [Compound 21, 4-(furan-2-yl) methylamino-5-trifluoromethyl-2-[4-{2-(pyrrolidin-1-yl)ethoxy}phenylamino]pyrimidine] here?
Answer: Its GI50 is 558 nM.

Question: What about the GI50 (Ba/F3 parental) of the same compound?
Answer: The GI50 was 8.06 µM.

Question: Which inhibition at 20 min, 10 µM (CYP 3A4) does the source give for `CC(=O)N1CCN(c2ccc(OCC3COC(Cn4ccnc4)(c4ccc(Cl)cc4Cl)O3)cc2)CC1` (stereo not shown) [ketoconazole, reference compound] here?
Answer: The inhibition at 20 min, 10 µM was 98.7%.

Question: With `Fc1cnc(Nc2ccc(OCCN3CCCC3)cc2)nc1NCc1ccco1` [Compound 20, 4-(furan-2-yl) methylamino-5-fluoro-2-[4-{2-(pyrrolidin-1-yl)ethoxy}phenylamino]pyrimidine] as the compound, how does the GI50 (Ba/F3 FLT3-ITD) read?
Answer: The GI50 was 178 nM.

Question: And the GI50 (Ba/F3 parental)?
Answer: The GI50 was 6.67 µM.

Question: What about the IC50 (ACK1) of the same compound?
Answer: The IC50 was 101 nM.

Question: And the IC50 (ARK5/NUAK1 [2])?
Answer: The IC50 was 52.3 nM.

Question: And the IC50 (JAK2)?
Answer: The IC50 was 99.1 nM.

Question: What about the IC50 (JAK1) of the same compound?
Answer: Its IC50 is 177 nM.

Question: And the IC50 (JAK2(V617F))?
Answer: Its IC50 is 238 nM.

Question: What about the IC50 (FLT3) of the same compound?
Answer: The IC50 was 22 nM.

Question: Which results are given for `Cc1cnc(Nc2ccc(OCCN3CCCC3)cc2)nc1NCc1ccco1` [Compound 1, 4-(furan-2-yl)methylamino-5-methyl-2-[4-{2-(pyrrolidin-1-yl)ethoxy}phenylamino]pyrimidine]?
Answer: GI50 (Ba/F3 FLT3-ITD): 92 nM; GI50 (Ba/F3 parental): 1.79 µM; IC50 (K-562 cell line): 5.1 µM; IC50 (MV-4-11 cells): 65.9 nM; IC50 (c-MER): 14.3 µM; IC50 (ACK1): 38.8 nM; IC50 (RET): 488 nM; IC50 (SIK2): 105 nM; IC50 (LRRK2): 113 nM; IC50 (ARK5/NUAK1 [2]): 5.9 nM; IC50 (AXL(R499C)): 207 nM; IC50 (TYRO3/SKY): 10.7 µM; IC50 (JAK2): 50.1 nM; IC50 (PKCmu/PRKD1): 167 nM; IC50 (JAK1): 50 nM; IC50 (JAK2(V617F)): 95.2 nM; IC50 (JAK3): 207 nM; IC50 (mLK1/MAP3K9): 148 nM; IC50 (AXL): 443 nM; IC50 (FLT3): 10.3 nM

Question: Which inhibition at 20 min, 100 µM (CYP 2C19) does the source give for `CN(C)CCC=C1c2ccccc2CCc2ccccc21` [amitriptyline, reference compound] here?
Answer: The inhibition at 20 min, 100 µM was 88%.

Question: Which “inhibitory activity against human CYP 1A2” value (CYP 1A2) does the source give for αα-naphthoflavone [reference compound] here?
Answer: The value was 97.7.
